Measured values from PubChem BioAssay AID1963451 (Molecular Pharmacology Branch, DTP, NCI, 2024).
pIC50: −log10 of the molar value.

Test system: 521955-158-R6-J3-PDC complex spheroid growth, % test/control
Assay: Anticancer human tumor 521955-158-R6-J3-PDC patient-derived pancreatic carcinoma cell line growth inhibition [Asc]
Conditions: for pIC50: curve of first compound; for viability, T/C: stronger effect = lower value; active = viability on the fitted dose curve at most 10% of control; inactive = the rest
Procedure, shortened: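 Tumor cells were grown as complex spheroids with human endothelial cells (HUVEC) and human mesenchymal stem cells as stroma. Agents were tested alone and in combination, in half-log steps down from the clinical Cmax, or from 10 microM where Cmax was unknown.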

[1] = second compound 0.00316 µM, first compound 0.0316 µM
[2] = second compound 0.00316 µM, first compound 0.1 µM
[3] = second compound 0.00316 µM, first compound 0.316 µM
[4] = second compound 0.00316 µM, first compound 1 µM
[5] = second compound 0.00316 µM, first compound 3.16 µM
[6] = second compound 0.00316 µM, first compound 10 µM
[7] = second compound 0.01 µM, first compound 0.0316 µM
[8] = second compound 0.01 µM, first compound 0.1 µM
[9] = second compound 0.01 µM, first compound 0.316 µM
[10] = second compound 0.01 µM, first compound 1 µM
[11] = second compound 0.01 µM, first compound 3.16 µM
[12] = second compound 0.01 µM, first compound 10 µM
[13] = second compound 0.0316 µM, first compound 0.0316 µM
[14] = second compound 0.0316 µM, first compound 0.1 µM
[15] = second compound 0.0316 µM, first compound 0.316 µM
[16] = second compound 0.0316 µM, first compound 1 µM
[17] = second compound 0.0316 µM, first compound 3.16 µM
[18] = second compound 0.0316 µM, first compound 10 µM
[19] = second compound 0.1 µM, first compound 0.0316 µM
[20] = second compound 0.1 µM, first compound 0.1 µM
[21] = second compound 0.1 µM, first compound 0.316 µM
[22] = second compound 0.1 µM, first compound 1 µM
[23] = second compound 0.1 µM, first compound 3.16 µM
[24] = second compound 0.1 µM, first compound 10 µM
[25] = second compound 0.316 µM, first compound 0.0316 µM
[26] = second compound 0.316 µM, first compound 0.1 µM
[27] = second compound 0.316 µM, first compound 0.316 µM
[28] = second compound 0.316 µM, first compound 1 µM
[29] = second compound 0.316 µM, first compound 3.16 µM
[30] = second compound 0.316 µM, first compound 10 µM
[31] = second compound 1 µM, first compound 0.0316 µM
[32] = second compound 1 µM, first compound 0.1 µM
[33] = second compound 1 µM, first compound 0.316 µM
[34] = second compound 1 µM, first compound 1 µM
[35] = second compound 1 µM, first compound 3.16 µM
[36] = second compound 1 µM, first compound 10 µM
[37] = second compound 0.00316 µM, first compound 0.00949 µM
[38] = second compound 0.00316 µM, first compound 0.03 µM
[39] = second compound 0.00316 µM, first compound 0.0949 µM
[40] = second compound 0.00316 µM, first compound 0.3 µM
[41] = second compound 0.00316 µM, first compound 0.949 µM
[42] = second compound 0.00316 µM, first compound 3 µM
[43] = second compound 0.01 µM, first compound 0.00949 µM
[44] = second compound 0.01 µM, first compound 0.03 µM
[45] = second compound 0.01 µM, first compound 0.0949 µM
[46] = second compound 0.01 µM, first compound 0.3 µM
[47] = second compound 0.01 µM, first compound 0.949 µM
[48] = second compound 0.01 µM, first compound 3 µM
[49] = second compound 0.0316 µM, first compound 0.00949 µM
[50] = second compound 0.0316 µM, first compound 0.03 µM
[51] = second compound 0.0316 µM, first compound 0.0949 µM
[52] = second compound 0.0316 µM, first compound 0.3 µM
[53] = second compound 0.0316 µM, first compound 0.949 µM
[54] = second compound 0.0316 µM, first compound 3 µM
[55] = second compound 0.1 µM, first compound 0.00949 µM
[56] = second compound 0.1 µM, first compound 0.03 µM
[57] = second compound 0.1 µM, first compound 0.0949 µM
[58] = second compound 0.1 µM, first compound 0.3 µM
[59] = second compound 0.1 µM, first compound 0.949 µM
[60] = second compound 0.1 µM, first compound 3 µM
[61] = second compound 0.316 µM, first compound 0.00949 µM
[62] = second compound 0.316 µM, first compound 0.03 µM
[63] = second compound 0.316 µM, first compound 0.0949 µM
[64] = second compound 0.316 µM, first compound 0.3 µM
[65] = second compound 0.316 µM, first compound 0.949 µM
[66] = second compound 0.316 µM, first compound 3 µM
[67] = second compound 1 µM, first compound 0.00949 µM
[68] = second compound 1 µM, first compound 0.03 µM
[69] = second compound 1 µM, first compound 0.0949 µM
[70] = second compound 1 µM, first compound 0.3 µM
[71] = second compound 1 µM, first compound 0.949 µM
[72] = second compound 1 µM, first compound 3 µM
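Note: spheroids exposed to compounds for 7 days.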
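Throughout, for viability, T/C: 100% = DMSO vehicle control wells.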

C#Cc1c(F)ccc2cc(O)cc(-c3ncc4c(N5CC6CCC(C5)N6)nc(OCC56CCCN5CC(F)C6)nc4c3F)c12 (stereo not drawn) + CNC(C)C(=O)NC1CN(S(=O)(=O)c2cccc(S(=O)(=O)N3CCC4CCC(C(=O)NC(c5ccccc5)c5ccccc5)N4C(=O)C(NC(=O)C(C)NC)C3)c2)CCC2CCC(C(=O)NC(c3ccccc3)c3ccccc3)N2C1=O
> 7.50: pIC50 (second compound 1 µM)
6.94: pIC50 (second compound 0.00316 µM)
7.25: pIC50 (second compound 0.0316 µM)
inactive: viability, T/C [1] 57.4% | viability, T/C [2] 45.8% | viability, T/C [3] 46.8% | viability, T/C [4] 38.4% | viability, T/C [5] 36.3% | viability, T/C [6] 21.4% | viability, T/C [7] 56.6% | viability, T/C [8] 44.7% | viability, T/C [9] 38.4% | viability, T/C [10] 34.7% | viability, T/C [11] 37% | viability, T/C [12] 25.1% | viability, T/C [13] 54.9% | viability, T/C [14] 42.8% | viability, T/C [15] 42% | viability, T/C [16] 33.1% | viability, T/C [17] 25.6% | viability, T/C [18] 24.9% | viability, T/C [19] 56.5% | viability, T/C [20] 46% | viability, T/C [21] 38.7% | viability, T/C [22] 38.7% | viability, T/C [23] 33.6% | viability, T/C [24] 24.8% | viability, T/C [25] 54.4% | viability, T/C [26] 37% | viability, T/C [27] 33.1% | viability, T/C [28] 29.7% | viability, T/C [29] 33.6% | viability, T/C [30] 18.3% | viability, T/C [31] 44.9% | viability, T/C [32] 41.7% | viability, T/C [33] 43.5% | viability, T/C [34] 30.7% | viability, T/C [35] 30.4% | viability, T/C [36] 21.9%
7.20: pIC50 (second compound 0.01 µM)
7.15: pIC50 (second compound 0.1 µM)
7.38: pIC50 (second compound 0.316 µM)

C=C(F)C(=O)N1CCN(c2nc(OCC3CCCN3C)nc3c2CCN(c2cccc4cccc(Cl)c24)C3)CC1CC#N (stereo not drawn) + CNC(C)C(=O)NC1CN(S(=O)(=O)c2cccc(S(=O)(=O)N3CCC4CCC(C(=O)NC(c5ccccc5)c5ccccc5)N4C(=O)C(NC(=O)C(C)NC)C3)c2)CCC2CCC(C(=O)NC(c3ccccc3)c3ccccc3)N2C1=O
5.46: pIC50 (second compound 1 µM)
5.38: pIC50 (second compound 0.01 µM) | pIC50 (second compound 0.1 µM)
active: viability, T/C [6] 0.24% | viability, T/C [12] 0.28% | viability, T/C [18] 0.21% | viability, T/C [24] 0.28% | viability, T/C [30] 0.26% | viability, T/C [36] 0.32%
5.42: pIC50 (second compound 0.316 µM)
5.32: pIC50 (second compound 0.00316 µM)
5.40: pIC50 (second compound 0.0316 µM)
inactive: viability, T/C [1] 92.6% | viability, T/C [2] 88.5% | viability, T/C [3] 81.2% | viability, T/C [4] 77.6% | viability, T/C [5] 76.8% | viability, T/C [7] 87.4% | viability, T/C [8] 83% | viability, T/C [9] 80.5% | viability, T/C [10] 66.9% | viability, T/C [11] 69.4% | viability, T/C [13] 95.6% | viability, T/C [14] 98.2% | viability, T/C [15] 73.7% | viability, T/C [16] 71.2% | viability, T/C [17] 70.2% | viability, T/C [19] 84.9% | viability, T/C [20] 74.2% | viability, T/C [21] 76.4% | viability, T/C [22] 69.7% | viability, T/C [23] 66.7% | viability, T/C [25] 79.6% | viability, T/C [26] 80.6% | viability, T/C [27] 77.1% | viability, T/C [28] 68.8% | viability, T/C [29] 62.5% | viability, T/C [31] 70.8% | viability, T/C [32] 77.2% | viability, T/C [33] 80.2% | viability, T/C [34] 71.5% | viability, T/C [35] 54.4%

CCN1C(C(=O)NC23CCC(C(=O)O)(CC2)CC3)C(c2cccc(Cl)c2F)C2(C(=O)Nc3cc(Cl)ccc32)C12CCCCC2 (stereo not drawn) + CNC(C)C(=O)NC1CN(S(=O)(=O)c2cccc(S(=O)(=O)N3CCC4CCC(C(=O)NC(c5ccccc5)c5ccccc5)N4C(=O)C(NC(=O)C(C)NC)C3)c2)CCC2CCC(C(=O)NC(c3ccccc3)c3ccccc3)N2C1=O
< 5.52: pIC50 (second compound 0.00316 µM) | pIC50 (second compound 0.01 µM) | pIC50 (second compound 0.0316 µM) | pIC50 (second compound 0.1 µM) | pIC50 (second compound 0.316 µM) | pIC50 (second compound 1 µM)
inactive: viability, T/C [37] 110% | viability, T/C [38] 110% | viability, T/C [39] 89.7% | viability, T/C [40] 111% | viability, T/C [41] 99.5% | viability, T/C [42] 97.5% | viability, T/C [43] 111% | viability, T/C [44] 90.1% | viability, T/C [45] 99.4% | viability, T/C [46] 98.8% | viability, T/C [47] 102% | viability, T/C [48] 103% | viability, T/C [49] 106% | viability, T/C [50] 78.3% | viability, T/C [51] 91.3% | viability, T/C [52] 96.3% | viability, T/C [53] 85.9% | viability, T/C [54] 85.3% | viability, T/C [55] 86.8% | viability, T/C [56] 92.4% | viability, T/C [57] 81.9% | viability, T/C [58] 92% | viability, T/C [59] 93.3% | viability, T/C [60] 96.4% | viability, T/C [61] 70.1% | viability, T/C [62] 82.4% | viability, T/C [63] 97.7% | viability, T/C [64] 83.3% | viability, T/C [65] 82.1% | viability, T/C [66] 88.2% | viability, T/C [67] 85.2% | viability, T/C [68] 102% | viability, T/C [69] 90.1% | viability, T/C [70] 83% | viability, T/C [71] 84.9% | viability, T/C [72] 96.4%

Cc1nc(N2CCC3(CC2)COC(C)C3N)c(CO)nc1Sc1ccnc(N)c1Cl (stereo not drawn) + CNC(C)C(=O)NC1CN(S(=O)(=O)c2cccc(S(=O)(=O)N3CCC4CCC(C(=O)NC(c5ccccc5)c5ccccc5)N4C(=O)C(NC(=O)C(C)NC)C3)c2)CCC2CCC(C(=O)NC(c3ccccc3)c3ccccc3)N2C1=O
< 5.52: pIC50 (second compound 0.00316 µM) | pIC50 (second compound 0.01 µM) | pIC50 (second compound 0.0316 µM) | pIC50 (second compound 0.1 µM) | pIC50 (second compound 0.316 µM) | pIC50 (second compound 1 µM)
inactive: viability, T/C [37] 99.5% | viability, T/C [38] 88.7% | viability, T/C [39] 73.2% | viability, T/C [40] 86.7% | viability, T/C [41] 73.4% | viability, T/C [42] 55% | viability, T/C [43] 109% | viability, T/C [44] 74% | viability, T/C [45] 79.4% | viability, T/C [46] 87.7% | viability, T/C [47] 69.9% | viability, T/C [48] 57.9% | viability, T/C [49] 90% | viability, T/C [50] 83.1% | viability, T/C [51] 81.1% | viability, T/C [52] 73.4% | viability, T/C [53] 63.6% | viability, T/C [54] 55% | viability, T/C [55] 94.6% | viability, T/C [56] 79.5% | viability, T/C [57] 82.3% | viability, T/C [58] 68.5% | viability, T/C [59] 60.1% | viability, T/C [60] 60.1% | viability, T/C [61] 82.9% | viability, T/C [62] 74.9% | viability, T/C [63] 77.4% | viability, T/C [64] 67.6% | viability, T/C [65] 62.5% | viability, T/C [66] 52.9% | viability, T/C [67] 82.7% | viability, T/C [68] 79.8% | viability, T/C [69] 74.6% | viability, T/C [70] 73% | viability, T/C [71] 73.9% | viability, T/C [72] 57.6%
